Key:
[1] = test system: HuH7 cells; assay: Cell cycle analysis by flow cytometry, HuH7; type: cell-based, human; settings: 10 h
[2] = test system: cleaved-PARP and LC3-II in HuH7 cells; assay: Western blotting, HuH7 cells; type: cell-based, human; settings: HuH7, 24 h
[3] = test system: HuH7; assay: Colony formation assay, HuH7; type: cell-based, human; settings: HuH7, one week
[4] = test system: HuH7 cells; assay: Annexin V-FITC/PI apoptosis detection assay, HuH7; type: cell-based, human; settings: 24 h
[5] = test system: HepG2; assay: Colony formation assay, HepG2; type: cell-based, human; settings: HepG2, one week
[6] = test system: SMMC-7721; assay: MTT assay, SMMC-7721 cells; type: cell-based, human; settings: Homo sapiens, SMMC-7721, 48 h, read-out: IC50 SMMC-7721
[7] = In vivo PK study; set-up: species or system Sprague-Dawley (SD) rats
[8] = test system: HCC cell lines (HepG2, HuH7, and SMMC-7721); assay: MTT assay, results stated over the three HCC cell lines; type: cell-based; settings: Homo sapiens, 48 h, read-out: IC50 against HCC cells (span over cell lines)
[9] = test system: HepG2 cells; assay: Annexin V-FITC/PI apoptosis detection assay, HepG2; type: cell-based, human; settings: HepG2, 1.0 μM, 24 h
[10] = test system: HuH7; assay: MTT assay, HuH7 cells; type: cell-based, human; settings: Homo sapiens, Huh-7, 48 h, read-out: IC50 HuH7
[11] = test system: A549-Nur77-/- cells; assay: Cell cycle analysis by flow cytometry, A549 Nur77-/-; type: cell-based, human; settings: 10 h
[12] = test system: transcriptional activity of Nur77 in Hela cells; assay: Dual-luciferase reporter assay; type: cell-based; settings: 24 h treatment
[13] = test system: HepG2; assay: MTT assay, HepG2 cells; type: cell-based, human; settings: Homo sapiens, HepG2, 48 h, read-out: IC50 HepG2
[14] = test system: cleaved-PARP, LC3-II and Nur77 in HepG2 cells; assay: Western blotting, HepG2 cells; type: cell-based, human
[15] = test system: LO2; assay: MTT assay, normal hepatocyte LO2; type: cell-based, human; settings: Homo sapiens, L02, 48 h, read-out: IC50 LO2, normal liver cell line, MTT, 48 h
[16] = test system: HepG2 cells; assay: Cell cycle analysis by flow cytometry, HepG2; type: cell-based, human; settings: 10 h
[17] = female, Sprague-Dawley, rat, plasma, iv, 2 mg/kg
[18] = female, Sprague-Dawley, rat, plasma, po, 20 mg/kg

Cc1cc(Nc2ccc(C(=O)N/N=C/c3scnc3C)cc2)c2cccc(O)c2n1 [TMHA37, (E)-4-((8-hydroxy-2-methylquinolin-4-yl)amino)-N'-((4-methylthiazol-5-yl)methylene)benzohydrazide]
cells in G2 (G2/M) ([1]; HuH7, TMHA37 1 μM): 20.07%
cells in G2 (G2/M) ([1]; HuH7, TMHA37 10 μM): 48.26%
LC3-II level [2]: dose-dependently increased the level of LC3-II
cleaved-PARP level [2]: dose-dependent upregulation of cleaved-PARP
colony formation [3]: significantly and dose-dependently inhibited the colony formation
apoptotic cells ([4]; HuH7, 1.0 μM): 12.82%
apoptotic cells ([4]; HuH7, 10.0 μM): 69.50%
colony formation [5]: significantly and dose-dependently inhibited the colony formation
IC50 [6]: 7.68 ± 1.3 µM
CL ([7]; SD rats, p.o. 20 mg/kg): 119.18 ± 18.43 L/h/kg
Vz ([7]; SD rats, p.o. 20 mg/kg): 192.55 ± 22.13 L/kg
AUC(0-inf) [7, 17]: 0.247 ± 0.0726 µg·h/mL
Cmax [7, 17]: 0.293 ± 0.0455 µg/mL
Tmax [7, 17]: 0.08 h
Vd [7, 17]: 22.2 ± 10.1 L/kg
clearance [7, 17]: 8.6 L/h/kg
half-life [7, 17]: 1.54 ± 0.35 h
AUC(0-inf) [7, 18]: 0.17 ± 0.0255 µg·h/mL
Cmax [7, 18]: 0.0196 ± 0.00097 µg/mL
Tmax [7, 18]: 5.83 ± 3.75 h
half-life [7, 18]: 1.13 ± 0.09 h
IC50 [8]: 2.33 to 7.68 µM
apoptotic cells [9]: 6.42%
IC50 [10]: 4.09 ± 0.89 µM
TMHA37-caused G2/M arrest in Nur77-knockdown A549 cells compared to control cells [11]: significantly decreased
reporter activity [12]: significantly increased the reporter fluorescence intensity in a dose-dependent manner
IC50 [13]: 2.33 ± 0.14 µM
Nur77 protein expression in cytoplasm and nucleus ([14]; HepG2, 10 μM, 3 h): increased the protein expression levels of Nur77 in both cytoplasm and nuclear
LC3-II level ([14]; HepG2, 24 h): dose-dependently increased the level of LC3-II
cleaved-PARP level ([14]; HepG2, 24 h): dose-dependent upregulation of cleaved-PARP
IC50 [15]: 21.2 ± 1.79 µM
cells in G2 (G2/M) ([16]; HepG2, TMHA37 1 μM): 26.72%
cells in G2 (G2/M) ([16]; HepG2, TMHA37 10 μM): 63.17%

Reference: article PMC10294756 (Journal of Enzyme Inhibition and Medicinal Chemistry, 2023)
